Measured values: ChEMBL document CHEMBL1201862, “PubChem BioAssay data set” (2004)
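Following 48 hours of exposure in 96-well plates, responses at five concentrations were used to interpolate endpoints linearly. GI50 marks 50% less growth.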 Calls of active or inactive are those of the source. Cut-off read from the data, not from the text of the source: active = GI50 up to about 1.1 µM and inactive = higher.

How the values were obtained:
Test in all cases: NCI anticancer screen, dose series, 48 h
[1] = tested on: 786-0
[2] = tested on: BT-549
[3] = tested on: CCRF-CEM
[4] = tested on: EKVX
[5] = tested on: HCC 2998
[6] = tested on: HT-29
[7] = tested on: IGROV-1
[8] = tested on: K562
[9] = tested on: MOLT-4
[10] = tested on: NCI-H522
[11] = tested on: OVCAR-4
[12] = tested on: OVCAR-5
[13] = tested on: SK-MEL-28
[14] = tested on: SK-MEL-2
[15] = tested on: SK-MEL-5
[16] = tested on: SR
[17] = tested on: U-251
[18] = tested on: UACC-257
[19] = tested on: RPMI-8226
[20] = tested on: DU-145

Measured: GI50

CC1CC/C(=C\c2ccc(N(C)C)cc2)C(=O)/C1=C/c1ccc(N(C)C)cc1 (stereo unspecified)
inactive: [1] > 100 µM | [2] > 100 µM | [3] > 100 µM | [4] > 100 µM | [5] > 100 µM | [6] > 100 µM | [7] > 100 µM | [8] > 100 µM | [9] > 100 µM | [10] > 100 µM | [11] > 100 µM | [12] > 100 µM | [13] > 100 µM | [14] > 100 µM | [15] > 100 µM | [16] > 100 µM | [17] > 100 µM | [18] > 100 µM

CCOC(=O)C1(C)CCCc2sc(N)c(C#N)c21 (stereo unspecified)
inactive: [1] > 100 µM | [2] > 100 µM | [4] > 100 µM | [5] > 100 µM | [6] > 100 µM | [7] > 100 µM | [8] > 100 µM | [9] > 100 µM | [12] > 100 µM | [19] > 100 µM | [13] > 100 µM | [14] > 100 µM | [15] > 100 µM | [16] > 100 µM | [17] > 100 µM | [18] > 100 µM

CC(C)(C)C(=O)OC(N)/C=C/c1ccccc1 (stereo unspecified)
inactive: [1] > 100 µM | [2] > 100 µM | [3] > 100 µM | [4] > 100 µM | [5] > 100 µM | [6] > 100 µM | [7] > 100 µM | [9] > 100 µM | [10] > 100 µM | [11] > 100 µM | [12] > 100 µM | [19] > 100 µM | [13] > 100 µM | [14] > 100 µM | [15] > 100 µM | [16] 94 µM | [17] > 100 µM | [18] > 100 µM

O/N=C/[C@H]1COC2(CCCCC2)O1
inactive: [1] > 100 µM | [3] > 100 µM | [20] > 100 µM | [4] > 100 µM | [6] > 100 µM | [7] > 100 µM | [8] > 100 µM | [9] > 100 µM | [11] > 100 µM | [12] > 100 µM | [19] > 100 µM | [13] > 100 µM | [14] > 100 µM | [15] > 100 µM | [17] > 100 µM | [18] > 100 µM

CCOC(=O)N1CCC2C(=C(C)C(C)C3=C2C(=O)c2ccccc2C3=O)C1 (stereo unspecified)
inactive: [1] 4.61 µM | [3] 9.44 µM | [20] 2.45 µM | [4] > 10 µM | [5] 5.19 µM | [6] 4.07 µM | [7] > 10 µM | [8] 3.08 µM | [9] 4.6 µM | [11] > 10 µM | [19] 3.79 µM | [13] 5.05 µM | [15] 1.77 µM | [16] 3.8 µM | [18] 3.29 µM

CSc1nc2c(=O)n(-c3ccccc3)c(=S)n(-c3ccccc3)c2s1
inactive: [1] 25.9 µM | [3] > 100 µM | [20] > 100 µM | [5] > 100 µM | [6] > 100 µM | [7] > 100 µM | [8] > 100 µM | [9] 63.2 µM | [10] > 100 µM | [11] 71.4 µM | [12] > 100 µM | [19] > 100 µM | [13] > 100 µM | [14] > 100 µM | [15] > 100 µM | [16] > 100 µM | [17] 38.5 µM | [18] > 100 µM

CCOC(=O)CCC(NC(=O)c1ccc(Oc2nc3ccc(C(F)(F)F)cc3nc2-c2ccccc2)cc1)C(=O)OCC (stereo unspecified)
inactive: [1] 4.25 µM | [3] > 100 µM | [20] > 100 µM | [4] 12.9 µM | [5] > 100 µM | [6] 5.15 µM | [7] 22.7 µM | [8] > 100 µM | [9] > 100 µM | [10] 9.57 µM | [11] 6.22 µM | [12] > 68.7 µM | [19] > 100 µM | [13] > 100 µM | [14] 22.8 µM | [15] 45.3 µM | [16] > 100 µM | [17] 20.4 µM | [18] > 64.7 µM

CN(C)c1ccc(-c2[nH]c(=O)c3ccccc3[n+]2C)cc1
inactive: [1] > 100 µM | [3] > 100 µM | [20] > 100 µM | [4] 88.9 µM | [5] > 100 µM | [6] 63.4 µM | [7] > 100 µM | [8] 58.6 µM | [9] 51.9 µM | [11] 60.1 µM | [12] 44.2 µM | [19] 63.2 µM | [13] > 100 µM | [15] 36.6 µM | [16] 49.4 µM | [17] > 100 µM | [18] 30.5 µM

CC(=O)OC12c3ccccc3C(c3ccccc31)C1C(=O)N(c3ccccn3)C(=O)C12 (stereo unspecified)
inactive: [1] > 100 µM | [2] 38.8 µM | [3] 57.1 µM | [20] > 100 µM | [4] > 100 µM | [5] 72.6 µM | [6] 62.4 µM | [7] > 100 µM | [8] 39.1 µM | [9] 32.8 µM | [11] > 100 µM | [12] > 100 µM | [19] 27.1 µM | [13] 85.9 µM | [15] 27.9 µM | [17] > 100 µM | [18] 31.3 µM

Cc1[nH]n(-c2nc3c(c(=O)[nH]2)CCC3)c(=O)c1CCO
inactive: [1] > 100 µM | [3] > 100 µM | [20] > 100 µM | [4] > 100 µM | [5] > 100 µM | [6] > 100 µM | [7] > 100 µM | [8] > 100 µM | [9] > 100 µM | [10] > 100 µM | [11] > 100 µM | [12] > 100 µM | [19] > 100 µM | [13] > 100 µM | [14] > 100 µM | [15] > 100 µM | [17] > 100 µM | [18] > 100 µM

Cn1c(COC(=O)NC2CCCCC2)c(COC(=O)NC2CCCCC2)c2ccc3cc(Cl)c(Cl)cc3c21
inactive: [1] 6 µM | [2] 16.4 µM | [3] 3.27 µM | [20] 28.6 µM | [4] 27.7 µM | [5] 13.7 µM | [6] 27.5 µM | [7] 17 µM | [8] 3.61 µM | [9] 14.8 µM | [12] 16 µM | [13] 12.5 µM | [14] 14.1 µM | [15] 11.7 µM | [17] 6 µM | [18] 14.5 µM

CC(=O)OCc1cc(=O)n2c([nH]c3ccccc32)c1C#N
inactive: [1] 40.6 µM | [2] > 100 µM | [3] 19.3 µM | [20] 68.7 µM | [4] 72.3 µM | [5] 42.6 µM | [6] 79.4 µM | [7] 55 µM | [8] 65.9 µM | [9] 47.1 µM | [11] 1.63 µM | [12] > 100 µM | [13] 82.6 µM | [14] 76.6 µM | [15] 49.9 µM | [17] 34 µM | [18] > 100 µM

Cc1n[nH]c(=O)n1/N=C/c1cccs1
inactive: [1] > 100 µM | [2] > 100 µM | [3] > 100 µM | [20] > 100 µM | [4] > 100 µM | [5] > 100 µM | [6] > 100 µM | [8] > 100 µM | [11] > 100 µM | [12] > 100 µM | [19] > 100 µM | [13] > 100 µM | [14] > 100 µM | [17] > 100 µM | [18] > 100 µM

CC1=NN(c2cccc(Cl)c2)C2(C1=Cc1ccccc1)C(Cl)C(=O)N2c1nc2ccccc2s1 (stereo unspecified)
inactive: [1] 17.5 µM | [3] 22.1 µM | [20] 15 µM | [4] 33.9 µM | [5] 17.3 µM | [6] 19.8 µM | [7] 15.1 µM | [8] 19.1 µM | [9] 23.5 µM | [10] 16.8 µM | [11] 19.1 µM | [12] 21.3 µM | [19] 21.9 µM | [13] 27.2 µM | [14] 17 µM | [15] 13.3 µM | [16] 24.2 µM | [17] 14.1 µM | [18] 24 µM

COC(=O)CCC1CCc2c(OC)ccc(OC)c2C1=O (stereo unspecified)
inactive: [1] > 100 µM | [3] > 100 µM | [4] > 100 µM | [5] > 100 µM | [6] > 100 µM | [7] > 100 µM | [8] > 100 µM | [9] > 100 µM | [10] > 100 µM | [11] > 100 µM | [12] > 100 µM | [19] > 100 µM | [13] > 100 µM | [14] > 100 µM | [15] > 100 µM | [16] > 100 µM | [17] > 100 µM | [18] > 100 µM

OC(c1ccsc1)c1cc2ccccc2s1 (stereo unspecified)
inactive: [1] > 10 µM | [3] > 10 µM | [20] > 10 µM | [4] > 10 µM | [5] > 10 µM | [6] > 10 µM | [7] > 10 µM | [8] > 10 µM | [9] > 10 µM | [10] > 10 µM | [11] > 10 µM | [12] > 10 µM | [19] > 10 µM | [13] > 10 µM | [14] > 10 µM | [15] > 10 µM | [16] > 10 µM | [17] > 10 µM | [18] > 10 µM
